Values belong to the compound of their own block, whether it stands above or below them. Non-standard residues stand in square brackets, D forms with d. Residues, ends and D or L forms follow the SMILES beside them. No end group written: not given here.
Key:
[1] = test system: HepG2 cells; assay: In vitro transfection (luciferase expression); format: cell-based; conditions: for transfection with DC-Chol:DOPE LPDs containing ligand: HepG2 (ASGPR bearing), 100 μM ligand, 1 μg DNA
Description: 16-24 hr prior to transfection, 5×10^4 cells (MDA-MB-231, LL/2 or HepG-2 (ATCC, Manassas, Va.)) in 500 μl/well of appropriate media (ATCC catalog describes appropriate media for each cell type) containing 10% FBS were seeded in a 48 well plate (Costar, Coming, N.Y.) and incubated overnight at 37° C. in 5% or 10% CO2. The following day, the media was removed and replaced with 500 μl of fresh serum-free media. […] After transfection, luciferase activity was assayed as described (Promega Luciferase Assay Kit, Cat. No. E1501, Madison, Wis.). Briefly, the cell culture media was removed and replaced by fresh media containing 10% FBS, and the cells were incubated at 37° C. in 5% or 10% CO2 for a further 48 h. Each well was washed with 1 ml PBS 0.095 M pH7.4 (Biowhittaker, Walkersville, Md.) and suspended in 200 μl of 1× luciferase reporter buffer (RLB) (Promega, Madison, Wis.). The cells were then subject to 3 cycles of freeze/thaw at −70° C./37° C., respectively. Cells were harvested and spun for 10 min at 14,000 rpm. 20 μl of the supernatant was assayed for luciferase activity by addition of 100 μl of luciferase substrate (Promega, Madison, Wis.), followed by a 10 sec incubation time at room temperature before luminescence relative units were measured using a Berthold (Aliquippa, Pa. autolumat B953 luminometer. The total protein concentration per sample was determined using a commercial kit of Coomassie plus dye (Pierce, Rockford, Ill.).
(§1) For in vitro cell testing of the galactosylated peptides, the following cell lines were used: HepG2 (ATCC, Manassas, Va.): Hepatocarcinoma cell line expressing the asialyglycoprotein (ASGP) receptor. […] These two cell lines were tested for the presence of the ASGP receptor by westen blotting with an anti-asialoglycoprotein receptor antibody from Calbiochem (Nottingham, UK). This confirmed the presence of the receptor in HepG2 cells and the absence of the receptor from Hep-SK1 cells (data not shown).
(§2) The formulations were incubated with the cells for 4 h, at which point the formulations were aspirated and fresh serum containing complete medium was added to the cells. Cells were harvested 48 h post transfection and were assayed for total cell protein expression and luciferase reporter gene expression. […] Thus, multifunctional targeting factors such as galactose-Elan094 (SEQ ID NO:6) can increase transfection activity over a single fimctional targeting factor.

[2] = test system: HepSK1 cells; assay: In vitro transfection (luciferase expression); format: cell-based, human; conditions: Hep-SK 1 (non-ASGPR), 100 μM ligand, 1 μg DNA
Description: as §1, §2
In vitro cell transfections were carried out as described supra in a number of cell types. […] The results for two different cell types, a human liver cell line (HepSK1) and a human breast cell line (MDA-MB-231), are shown in Tables 7 and 8.

[3] = test system: KB cells; assay: Effect of lysomotrophic agent on PPAA-mediated transfection; format: cell-based; conditions: added half an hour prior to LPD
Description: Lysomotrophic agent, either chloroquine (an anti-malarial drug, weak base protonated in endosome) or bafilomycin A (a specific ATPase inhibitor which reduces the amount of protons entering the endosome), capable of preventing endosomal acidification, were added in varying amounts to the transfection mixture half and hour prior to LPD addition to the cells.

[4] = test system: MDA-MB-231 cells; assay: Competition assays of ligand-mediated transfection; format: cell-based, human; conditions: 0.1 μg DNA/well; for effect of 1000-fold excess of free peptide on DSPE-PEG5K-RGD mediated transfection: 10 mol % DSPE-PEG5K-RGD LPD
Description: Three competitions assays were performed using MDA-MB-231 cells in order to assess specificity of transfection-mediated-[…] (SEQ ID NO:10) or DSPE-PEG5K-RGD (SEQ ID NO:11). Transfections were performed as described above except that the culture media was supplemented with free LHRH or RGD peptides, or antibody against the LHRH or the integrin receptor as competition agents. 10 mol % pegylated lipid or targeting factor-pegylated lipid conjugate was used for each experiment.
The first competition assay was performed using 1 μg DNA/well. This DNA concentration required a high concentration of free LHRH to achieve a 100 fold excess of free LHRH which was toxic for the cells. Similarly, with the RGD formulation, this DNA concentration required a high concentration of free RGD in order to achieve 100 fold excess of free RGD (3.25 μl of dansyl-labeled RGD ((Integrated Biomolecule Corporation, Tucson, Ariz.) from a solution at 5 mg/ml in H2O) which was toxic for the cells.
In order to decrease LHRH associated toxicity, a second competition assay was performed using 0.1 μg DNA/well (FIGS. 6A and 6B). 0.1 μg DNA/well corresponds to 862.62 ng DSPE-PEG5K-LHRH (SEQ ID NO:10) or 168.6 ng of LHRH/well using a 12 nmol:1 μg lipid:DNA ratio and 10 mol % DSPE-PEG5K-LHRH (SEQ ID NO:10) in the total lipids in the formulation. Transfections were performed as described above. The second competition assay was performed using 17.5 μg/well (5 μl) of anti-LHRH receptor F1G4, and 15 μg/well (50 μl) of anti-LHRH receptor A9E4 from Biogenesis (Kingston, N.H.). The appropriate isotype match antibody (17.5 μg/well), anti-CD3 IgG1K (Pharmingen, San Diego, Calif.), was used as a control. Additionally, a 100-fold and 1000 fold excess of LHRH was tested as a competition agent: the media was supplemented with 6.5 μl or 65 μl of a stock solution of 2.5 mg/ml of [D-Trp]-LHRH from Sigma (St. Louis, Mo.). Moreover, in this particular experiment, 2 anti-LHRH receptor polyclonal serums were tested: 5 μl/well of a rabbit serum anti-LHRH receptor (Biogenesis, Kingston, N.H.) and 50 μl/well sheep serum anti-LHRH receptor (Biogenesis, Kingston, N.H.). The corresponding volumes of control serum were used as an isotype control. Control serums were purchased from Sigma (St. Louis, Mo.).
LPDs were also directly incubated with an anti-LHRH antibody or an isotype control (Anti-IgG) antibody before addition of LPDs to cells in order to block the LHRH molecule on the LPD surface (data not shown). Briefly, 6.67 μl of 1/10 diluted DSPE-PEG5K-LHRH LPDs at 150 μg DNA/ml were mixed with 50 μl of mouse anti-LHRH antibody or control (Dako Corporation, Carpinteria, Calif.) and incubated for 1 h at room temperature prior to transfection as described above. […]

[5] = test system: KB cells; assay: In vitro transfection (luciferase expression); format: cell-based; conditions: 1 μg DNA/well
Description: The following day, the media was removed and replaced with 500 μl of fresh serum-free media.

[6] = biological target: LHRH receptor on MDA-MB-231, SKOV3-IP1 and H-69 cells (human) (UniProt P30968); assay: cell-based or functional assay
Chain of LHRH receptor on MDA-MB-231, SKOV3-IP1 and H-69 cells (human) (P30968 whole entry): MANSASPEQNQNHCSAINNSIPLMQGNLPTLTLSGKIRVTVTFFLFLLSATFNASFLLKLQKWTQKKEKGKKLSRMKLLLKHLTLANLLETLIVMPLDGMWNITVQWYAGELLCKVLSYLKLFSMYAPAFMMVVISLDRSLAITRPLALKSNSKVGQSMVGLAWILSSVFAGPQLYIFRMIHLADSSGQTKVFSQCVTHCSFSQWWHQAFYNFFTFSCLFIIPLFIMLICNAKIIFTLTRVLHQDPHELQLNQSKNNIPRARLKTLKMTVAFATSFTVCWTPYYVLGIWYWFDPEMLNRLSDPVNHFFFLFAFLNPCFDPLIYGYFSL

[7] = MTLP peptide stability in serum over time (HPLC-UV); format: in vitro ADME, mouse; conditions: 37° C.; for stability in mouse serum (recovery by HPLC-UV): 1 mg/mL peptide + equal volume mouse serum, 10-120 min
Description: The MTLP peptide solutions were prepared at 1 mg/mL and 20 μL aliquots placed in tubes. To one set of tubes an equal volume of mouse serum was added and to a second set 0.9% saline solution was added as negative a control. The tubes were incubated at 37° C. A control and a sample tube were removed at various timepoints (10, 30, 60 and 120 min) and any reaction quenched using 70:30 acetonitrile:water (160 μL). Each quenched sample was then analysed by HPLC-UV at 220 nm with a C18 column (5 μm, 300Å, 250×4.6 mm id) for 45 minutes. Mobile phase A was 10:90 acetonitrile: 0.1% trifluoroacetic acid in water and mobile phase B was 0.1% trifluoroacetic acid in acetonitrile.

Compound: S(Galactose)KKAAAVLLPVLLAAP [GElan094]
transfection with DC-Chol:DOPE LPDs containing ligand [1]: Increased transfection
transfection with DC-Chol:DOPE LPDs containing ligand [2]: no increase in transfection

Compound: CO/C1=C\C(C)=C\[C@@H](C)[C@@H](O)[C@@H](C)C/C(C)=C/C=C/[C@H](OC)[C@@H]([C@@H](C)[C@@H](O)[C@H](C)[C@@]2(O)C[C@@H](O)[C@H](C)[C@@H](C(C)C)O2)OC1=O [Bafilomycin A, bafilomycin A]
effect on PPAA-mediated transfection ([3]; 10 ng/well): appeard to block PPAA-mediated transfection

Compound: CCN(CC)CCCC(C)Nc1ccnc2cc(Cl)ccc12 (stereo not shown) [Chloroquine, chloroquine]
effect on PPAA-mediated transfection ([3]; 1600 nM): blocked PPAA-mediated transfection

Compound: des-Pro-KKAAAVLLPVLLAAS-Galactose [Elan094G]
dose giving optimal transfection ([1]; DC-chol:DOPE LPDs, dose titration (FIG. 14)): 50 µM
transfection with DC-Chol:DOPE LPDs containing ligand [1]: Increased transfection
transfection with DC-Chol:DOPE LPDs containing ligand [2]: no increase in transfection

Compound: GRGESP
effect of 1000-fold excess of free peptide on DSPE-PEG5K-RGD mediated transfection [4]: did not inhibit transfection activity

Compound: GRGDNP
effect of 1000-fold excess of free peptide on DSPE-PEG5K-RGD mediated transfection [4]: inhibition of transfection activity

Compound: RRRRRRRH
increase in transfection activity when formulated with CHEMS:DOPE compared to peptide-compacted DNA alone [5]: 2 fold

Compound: H2N-KKKAAAVLLPVLLAAPREDL (H-KKKAAAVLLPVLLAAPREDL) [ZElan094R]
transfection with DC-Chol:DOPE LPDs containing ligand [1]: Increased transfection
transfection with DC-Chol:DOPE LPDs containing ligand [2]: no increase in transfection

luciferase expression in MDA-MB-231 cells after transfection with LPDs containing 10 mol % DSPE-PEG5K-LHRH, free LHRH in the medium as competition agent [6]: 1000 fold
Compound: [D-Trp]-LHRH from Sigma (from UniProt P01148 24-33) (peptide)

Compound: LHRH: free LHRH used as competition agent, [D-Trp]-LHRH from Sigma (QHWSYGLRPG; not fully specified (residue 1, C-terminus); ends and bridges not checked; also: D-Trp, position not given here)
effect of 1000-fold excess of free LHRH on DSPE-PEG5K-LHRH mediated transfection ([4]; 10 mol % DSPE-PEG5K-LHRH LPD): clear inhibition of transfection activity

stability in mouse serum (recovery by HPLC-UV) [7]: stable in mouse serum up to 2 h
Compound: CC(C)C[C@@H](NC(=O)[C@@H](CC(C)C)NC(=O)[C@H](NC(=O)[C@H]1CCCN1C(=O)[C@@H](CC(C)C)NC(=O)[C@@H](CC(C)C)NC(=O)[C@H](NC(=O)[C@@H](C)NC(=O)[C@@H](C)NC(=O)[C@@H](CCCCN)NC(=O)[C@@H](CCCCN)NC(=O)[C@H](N)CCCCN)C(C)C)C(C)C)C(=O)N[C@H](C)C(=O)N[C@H](C)C(=O)N1CCC[C@@H]1C(=O)O [ZElan207, H2N-kkkaavllpvllaap] (H-[dK][dK][dK][dA][dA][dV][dL][dL][dP][dV][dL][dL][dA][dA][dP]-OH; C-terminus assumed)

stability in mouse serum (recovery by HPLC-UV) [7]: degrades in mouse serum over 2 hr
ligand still detectable at 30 minutes following incubation in mouse serum [7]: up to 60%
start of degradation in mouse serum [7]: > 10 min
Compound: H-KKKAAAVLLPVLLAAP [ZElan094]

Compound: GRGDSP
effect of 1000-fold excess of free peptide on DSPE-PEG5K-RGD mediated transfection [4]: inhibition of transfection activity
